# In US5215889A, “Catalytic and reactive polypeptides and methods for their preparation and use” (The Regents of the University of California, priority 1989, dated 1993):
# B1: MOPC315 Fv variant Fv(Y34HL), Tyr 34L to His (Mus musculus; Y53H) (protein)
# chain 1: QAVVTQESALTTSPGGTVILTCRSSTGAVTTSNHANWIQEKPDHLFTGLIGGTSNRAPGVPVRFSGSLIGDKAALTITGAQTEDDAMYFCALWFRNHFVFGGGTKVTVLGQPKST
# chain 2: DVQLQESGPGLVKPSQSLSLTCSVTGYSITSGYFWNWIRQFPGNKLEWLGFIKYDGSNGYNPSLKNRVSITRDTSENQFFLKLNSVTTEDTATYYCAGDNDHLYYFDYWGQGTTLTVSS
# notes: Antibody-derived VH was prepared by denaturing ion exchange chromatography of authentic MOPC315 Fv, obtained from pepsin digestion of purified IgA; lambda cII fusion with Factor Xa site (IleGluGlyArg) (N, cleaved yes); made in house; host or cells: VL: E. coli MZ1 (cII fusion, inclusion bodies); VH: pepsin-cleaved MOPC315 IgA from mouse ascites
# What was measured:
# [1] = biological target: T1, MOPC315 Fv variant Fv(Y34HL), Tyr 34L to His (Mus musculus, UniProt P01729+P01822, Y53H); assay: Hydrolysis of DNP coumarin esters 1-3 by Fv; type: biochemical, murine; conditions: for kcat (Table 2, Fv(Y34HL)): pH 6.8, SE (n = 3)
# T1 construct: Antibody-derived VH was prepared by denaturing ion exchange chromatography of authentic MOPC315 Fv, obtained from pepsin digestion of purified IgA; lambda cII fusion with Factor Xa site (IleGluGlyArg) (N, cleaved yes); made in house; host or cells: VL: E. coli MZ1 (cII fusion, inclusion bodies); VH: pepsin-cleaved MOPC315 IgA from mouse ascites
# Protocol: (§1) FIG. 22 is a Lineweaver-Burke plot of initial rate data obtained for the hydrolysis of 1 as described in Example 6 of the Experimental section herein. Four μl of a 100-fold concentrated solution of substrate 1 in DMSO was added to the 400 μl of Fv (115 nM) in buffer A while monitoring 7-hydroxycoumarin fluorescence at 25° C. (excitation:355nm; emission: 457 nm). A standard of 7-hydroxycoumarin was added at the completion of each assay to assess quenching of coumarin fluorescence by DNP at high substrate concentrations. The buffer background rate was subtracted from the initial rates. Each point represents the average velocity of at least duplicate experiments. Factor X, Factor Xa, or Russell's viper venom had no hydrolytic activity towards 1.
# (§2) The ability of wild type and mutant Fvs to hydrolyze esters 1-3 was assayed by measuring the rate of coumarin release fluorimetrically at pH 6.8 (Pollack et al. (1988) supra; Pollack (1989) supra). […] Under these conditions, Fv(Y34HL) turns over at least 11 times and still retains 44% of its activity. The loss of activity is likely due to the accumulation of the inhibitory reaction product 8. […] Ester 2 was a poor substrate (kcat (2)=0.015 min^-1); and the hydrolysis of 3 was not accelerated (kcat (3)<0.005 min^-1). […] The initial rate of hydrolysis of 1 by Fv(Y34HL) at pH 6.8 is approximately 45-fold faster than the reaction with either […] (Table 2). At pH 8.7, the reactivity of Fv(Y34HL) and Fv(315) both increase, but differentially (v[Fv(Y34HL ]/v[Fv(315)]=3.3, at 10 μM 1). Under these conditions Fv(Y34HL) catalytically hydrolyzes 1 while Fv(315) reacts stoichiometrically. The increased reactivity of Fv(315) at higher pH may be due to deprotonation of the tyrosine hydroxyl and subsequent transesterification to form a relatively stable phenol ester.
# [2] = biological target: T2, MOPC315 Fab, thiolated (labeled with bromoketone 4; tyrosine 34L derivatized) (Mus musculus, UniProt P01729+P01822+P01844); assay: Fluorescence quenching binding of substrate by thiolated Fab; parameters: species or system murine
# T2 construct: made in house; host or cells: Fab by papain digestion of reduced and alkylated MOPC315 IgA (murine myeloma)
# T2 sequence (P01729+P01844 fused, one chain of several): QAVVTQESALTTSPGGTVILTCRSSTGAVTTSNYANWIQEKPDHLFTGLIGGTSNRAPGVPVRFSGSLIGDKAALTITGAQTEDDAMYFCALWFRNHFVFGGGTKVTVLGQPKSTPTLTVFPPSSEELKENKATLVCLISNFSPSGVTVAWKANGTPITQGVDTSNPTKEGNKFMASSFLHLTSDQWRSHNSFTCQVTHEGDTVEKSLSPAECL
# Source text: The reaction kinetics are consistent with the formation of a Michaelis complex (FIG. 6). […] Neither the uncleaved affinity-labeled antibody nor the iodoacetamide-alkylated antibody accelerated the rate of the thiolysis reaction above the background rate. The stoichiometry of product release corresponded to 1.0 coumarin to 1.0 Fab-SH. […] However, the introduction of both a thiol and a general base into the label may lead to a catalytic system (Bruice (1959) J. Am. Chem. Soc. 81:5444 and Street et al. (1985) J. Am. Chem. Soc. 107:7669).
# [3] = biological target: T3, MOPC315 Fab, thiolated (affinity-labeled with 2 and cleaved; free thiol at lysine 52H) (Mus musculus, UniProt P01729+P01822+P01878); assay: Thiolysis of DNP coumarin ester by thiolated Fab; type: biochemical, murine
# T3 construct: made in house; host or cells: Fab by papain digestion of reduced and alkylated MOPC315 IgA (murine myeloma)
# T3 sequence (P01822+P01878 fused): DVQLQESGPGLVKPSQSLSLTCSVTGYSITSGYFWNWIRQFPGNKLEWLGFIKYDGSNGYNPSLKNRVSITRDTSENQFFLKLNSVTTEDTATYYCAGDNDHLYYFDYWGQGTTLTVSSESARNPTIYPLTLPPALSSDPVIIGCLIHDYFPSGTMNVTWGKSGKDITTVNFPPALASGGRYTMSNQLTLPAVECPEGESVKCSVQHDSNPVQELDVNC
# T3 sequence (P01729 20-129): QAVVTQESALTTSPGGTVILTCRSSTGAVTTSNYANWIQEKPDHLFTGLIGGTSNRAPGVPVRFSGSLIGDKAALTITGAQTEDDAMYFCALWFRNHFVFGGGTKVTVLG
# Protocol: Cleavage of DNP coumarin esters 14 and 15 by the thiol-containing antibodies was assayed in the presence of 0.1M NaCl, 50 mM sodium phosphate, pH 7.0, with 24 μM dithiothreitol at 10° C. The release of free coumarin was quantitated fluorometrically, exciting at 355 nm and measuring emission at 455 nm. The S-thiopyridyl Fab was first dialyzed against assay buffer, 30 min. prior to the assays, an aliquot of the thiopyridyl Fab (0.15 mg in 0.19 ml) was reduced with 3.8 mM dithiothreitol at 20° C. For each assay, reduced, thiolated Fab (15 μg in 18.8 μl) was diluted with assay buffer (2.95 ml) so that the net concentrations of thiolated Fab and of dithiothreitol were 0.1 μM and 24 μM, respectively. After equilibrating, the substrate was added (30 μl of a stock solution in acetonitrile) and the solution mixed for 10 sec. before monitoring fluorescence change. Antibody rates were corrected by subtracting the rate of cleavage in the absence of Fab.
# The reaction kinetics are consistent with the formation of a Michaelis complex (FIG. 6). […] Neither the uncleaved affinity-labeled antibody nor the iodoacetamide-alkylated antibody accelerated the rate of the thiolysis reaction above the background rate. The stoichiometry of product release corresponded to 1.0 coumarin to 1.0 Fab-SH. […]
# underivatized MOPC 315 = assay: Fluorescence quenching binding in PBS; parameters: species or system murine
# Protocol: The hydrolysis of coumarin esters 1a-1d (FIG. 9) by the semisynthetic antibody was assayed in the presence and absence of 1 μM derivatized Fab at varying pH, at 30° C. (Morpholineethanesulfonic acid (100 mM) as used as the buffer in the range of pH 5 to 7. Sodium phosphate (100 mM) was used in the range of pH 6 to 8 and tris-HCl (100 mM) was used in the range of pH 7 to 9.) The release of free coumarin was quantitated fluorometrically, exciting at 355 nm and measuring emission at 455 nm. Antibody rates were corrected by subtracting the rate of cleavage in the absence of antibody. […] This value is almost identical to the KD (5 μM) for the binding of N-DNP-glycine to underivatized MOPC 315, (determined by fluorescence quenching in PBS). […] At pH>8, the unmodified Fab slightly accelerates the cleavage of ester 1b in a stoichiometric reaction, presumably involving modification of an amino acid side chain near the binding site. However, this reaction is not observed in the catalysis by the imidazole-derivatized antibody, where the reactive antibody side-chain is probably inaccessible. The catalytic activity of the semisynthetic antibody is destroyed by treatment with diethylpyrocarbonate, an imidazole-specific reagent. […]
# [4] = test system: antibody 15F1-3B1 (IgG, thymine dimer specific); assay: Antibody-sensitized photocleavage of thymine dimer; type: biochemical, Balb/c mice
# Protocol: Solutions of carboxymethylthymine dimer 1 were irradiated with 300 nm light in the presence of antibody; and dimer cleavage was assayed spectrophotometrically as follows. Deoxygenated solutions of thymine dimer (5-300 μM) and antibody (3 μM) in 100 mM NaCl, 10 mM phosphate buffer, pH 7.5 were irradiated at 18°-20° C. in a 1 mL quartz cuvette. All photolysis experiments were performed with a 1000 W high pressure Hg-Xe lamp equipped with a Photon Technologies International, Inc. Model Q5001 Quantacount electronic actinometer and a diffraction grating monochromator blazed at 500 nm. A bandpass of 3 nm was used for both kinetic and photon counting experiments. […] Monomer formation was assayed spectrophotometrically at fixed time intervals (λmax =272 nm, log ε=3.90).
# [5] = test system: monoclonal antibody (IgG) generated against hapten 2 (benzylamine 2); assay: Antibody-catalyzed elimination of HF from β-fluoroketone; type: biochemical, Balb/c mice
# Protocol: Solutions of substrate 1 were incubated with 2 μM Ig at 37° C. in 10 mM Bis-tris-HCl, 100 mM NaCl pH 6.0, at substrate concentration between 50 and 500 μM. Protein molarity was determined by absorbance at 280 nm using ε^0.1% =1.37 and a molecular weight of 150 kD for IgG. Elimination was followed spectrophotometrically. […] One of these antibodies was characterized further. […] The kinetics of the reaction are consistent with the simple Michaelis-Menten rate expression: [drawing 3] These values afford a kcat /kuncat of 1480 at pH 6.0.
# Values of Ki were determined at 10 mM Bis-tris-HCl, 100 mM NaCl, pH 6.0 (37° C.). Substrate concentrations were 200 and 500 μM, Ig concentration was 2 μM, hapten concentration was […] to 1 μM.
# The pH dependence of kcat was also determined under the same reaction conditions. Values of kcat are as follows: kcat =0.083 min^-1 at pH 5.5, kcat =0.11 at pH 5.75, kcat =0.188 at pH 6.0, kcat =0.3 at pH 6.5 and kcat =0.43 at pH 7.5. A plot of kcat vs. kcat [H^+ ] gives a pKa of 6.1 for the active site base. It is very likely that this corresponds to a high pKa carboxylate based on the strategy for generating the antibody. Chemical modification experiments with diazoacetamide support this hypothesis.
# [6] = biological target: T4, MOPC315 Fv, wild type, Fv(315) (Mus musculus, UniProt P01729+P01822); assay: Hydrolysis of DNP coumarin esters 1-3 by Fv; type: biochemical, murine; conditions: pH 6.8
# T4 construct: The Fv fragment (26 kD) is a heterodimer consisting of two peptides, VH (14 kD) and VL (12 kD); made in house; host or cells: MOPC315 myeloma ascites (Balb/c mice), IgA cleaved with pepsin
# T4 sequence (P01729 20-129, one chain of several): as the sequence (P01729 20-129) above
# Protocol: as §1, §2
# [7] = biological target: MOPC315 Fv variant Fv(Y34FL), Tyr 34L to Phe; assay: Fv fluorescence titration with DNP-L-lysine; type: binding, murine; conditions: pH 6.8; ±SE
# Protocol: (§3) FIG. 21 is a plot of Fv fluorescence titration with DNP-L-lysine as described in Example 6 of the Experimental section herein. Fv(315)(·),Fv(Y34FL)(Δ), or Fv(Y34HL)(o)(400 μl, 450-500 nM, ε280 nm=37,500 M^-1) in 100 mM potassium phosphate, pH 6.8 (buffer A), was titrated with solutions of 10-100 μM DNP-L-lysine (ε360 nm =17,500 M^-1) in buffer A while monitoring the protein fluorescence (excitation: 282 nm; emission: 343 nm). Fluorescence was corrected for the change in volume. Dissociation constants (KD) were determined by a modified Scatchard analysis.
# (§4) The binding of ε-2,4-DNP-(L)-lysine (DNP Lys) by mutant wild type Fv proteins was assessed by titration of the intrinsic fluorescence of MOPC315 Fv (Hochman et al. (1973) supra; Hochman et al. (1977) supra), as shown in FIG. 21. […] DNP-aminoalkyl carboxylic acids of different lengths 6-9 (FIG. 16) were used to probe the location of the positively charged imidazole ring with respect to the DNP site in Fv(Y34HL) at pH 6.0.
# [8] = biological target: MOPC315 Fv variant Fv(Y34HL), Tyr 34L to His; assay: Fv fluorescence titration with DNP-L-lysine; type: binding, murine; conditions: pH 6.8; ±SE
# Protocol: as §3, §4
# [9] = biological target: T4, MOPC315 Fv, wild type, Fv(315); assay: Fv fluorescence titration with DNP-L-lysine; type: binding, murine; conditions: pH 6.8; ±SE
# Protocol: as §3, §4
# [10] = substrate: O=C(CCCCNc1ccc([N+](=O)[O-])cc1[N+](=O)[O-])Oc1ccc2ccc(=O)oc2c1; assay: Hydrolysis of DNP coumarin esters 1-3 by Fv; type: biochemical, murine; conditions: other: pH 6.8, 25° C.
# Protocol: as §1, §2
# [11] = substrate: O=C(CCNc1ccc([N+](=O)[O-])cc1[N+](=O)[O-])Oc1ccc2ccc(=O)oc2c1; assay: Hydrolysis of DNP coumarin esters 1-3 by Fv; type: biochemical, murine; conditions: other: pH 6.8, 25° C.
# Protocol: as §1, §2
molecule,measurement,setting,value
O=C(CCNc1ccc([N+](=O)[O-])cc1[N+](=O)[O-])Oc1ccc2ccc(=O)oc2c1 [compound 3],"kcat (Table 2, Fv(Y34HL))",[1],< 0.005 min
CC(=O)Oc1ccc([N+](=O)[O-])cc1[N+](=O)[O-] [DNP-acetate],binding of substrate (fluorescence quenching),[2],did not bind the substrate with appreciable affinity
"O=C(O)CNc1ccc([N+](=O)[O-])cc1[N+](=O)[O-] [DNP-glycine, N-DNP-glycine]",Ki,[3],8000 nM
same,Kd,underivatized MOPC 315,5000 nM
"C[C@]12C(=O)NC(=O)N(CC(=O)O)[C@H]1[C@H]1N(CC(=O)O)C(=O)NC(=O)[C@]12C [dimer 1, carboxymethylthymine-(cis,syn)cyclobutane dimer]",kcat /Km,"[4]; 300 nm irradiation, pH 7.5",3000 M⁻¹ s⁻¹
same,Km,"[4]; 300 nm irradiation, pH 7.5, 18°-20° C.",6.5 µM
same,kcat,"[4]; 300 nm, incident flux 1.26×10^-7 einsteins min^-1, pH 7.5, 18°-20° C.",0.02 s⁻¹
"CC(=O)CC(F)c1ccc([N+](=O)[O-])cc1 (racemic) [substrate 1, (R,S) 4-Fluoro-4-p-nitro phenylbutan-2-one]",kcat,[5]; pH 5.5,0.00138 s⁻¹
same,kcat,[5]; pH 5.75,0.00183 s⁻¹
same,Km,"[5]; pH 6.0, 37° C.",182 µM
same,kcat,"[5]; pH 6.0, 37° C.",0.00313 s⁻¹
same,kcat,[5]; pH 6.5,0.005 s⁻¹
same,kcat,[5]; pH 7.5,0.00717 s⁻¹
O=C(CCCCCNc1ccc([N+](=O)[O-])cc1[N+](=O)[O-])Oc1ccc2ccc(=O)oc2c1 [compound 2],"kcat (Table 2, Fv(Y34HL))",[1],0.015 min
same,"kcat (Table 2, Fv(315))",[6],0.005 min
"N[C@@H](CCCCNc1ccc([N+](=O)[O-])cc1[N+](=O)[O-])C(=O)O [DNP-L-lysine, ε-2,4-DNP-(L)-lysine]",Kd,[7],270 ± 30 nM
same,Kd,[8],1400 ± 300 nM
same,Kd,[9],270 ± 30 nM
same,Ki,[1],3800 ± 1500 nM
B1,Km,[10],2.2 ± 0.2 µM
same,kcat,[10],0.003 ± 0.0005 s⁻¹
same,kcat/Km,[10],8.2×10^4 m^-1 min^-1
same,kcat,[11],8.3e-05 s⁻¹
